# Test results taken from PubChem BioAssay (NCI).
#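 Results reflect a 48-hour exposure of cells in 96-well plates to compound at five concentrations. Abbreviation: GI50, concentration required for 50% inhibition of growth. TGI denotes the concentration required for complete inhibition of growth.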
# Experiments:
# Assay in all cases: NCI anticancer screen, dose series, 48 h
# 786-0 renal = system: 786-0 renal
# A498 renal = system: A498 renal
# A549 NSCLC = system: A549 NSCLC
# ACHN renal = system: ACHN renal
# BT-549 breast = system: BT-549 breast
# CAKI-1 renal = system: CAKI-1 renal
# CCRF-CEM leukemia = system: CCRF-CEM leukemia
# COLO 205 colon = system: COLO 205 colon
# DU-145 prostate = system: DU-145 prostate
# EKVX NSCLC = system: EKVX NSCLC
# HCC-2998 colon = system: HCC-2998 colon
# HCT-116 colon = system: HCT-116 colon
# HCT-15 colon = system: HCT-15 colon
# HL-60(TB) leukemia = system: HL-60(TB) leukemia
# HOP-62 NSCLC = system: HOP-62 NSCLC
# HOP-92 NSCLC = system: HOP-92 NSCLC
# HS 578T breast = system: HS 578T breast
# HT29 colon = system: HT29 colon
# IGROV1 ovarian = system: IGROV1 ovarian
# K-562 leukemia = system: K-562 leukemia
# KM12 colon = system: KM12 colon
# LOX IMVI melanoma = system: LOX IMVI melanoma
# M14 melanoma = system: M14 melanoma
# MALME-3M melanoma = system: MALME-3M melanoma
# MCF7 breast = system: MCF7 breast
# MDA-MB-231 breast = system: MDA-MB-231 breast
# MDA-MB-435 = system: MDA-MB-435
# MDA-MB-468 breast = system: MDA-MB-468 breast
# MOLT-4 leukemia = system: MOLT-4 leukemia
# NCI-H226 lung = system: NCI-H226 lung
# NCI-H23 lung = system: NCI-H23 lung
# NCI-H460 lung = system: NCI-H460 lung
# NCI-H522 lung = system: NCI-H522 lung
# OVCAR-3 ovarian = system: OVCAR-3 ovarian
# OVCAR-4 ovarian = system: OVCAR-4 ovarian
# OVCAR-5 ovarian = system: OVCAR-5 ovarian
# OVCAR-8 ovarian = system: OVCAR-8 ovarian
# PC-3 prostate = system: PC-3 prostate
# RPMI-8226 leukemia = system: RPMI-8226 leukemia
# RXF 393 renal = system: RXF 393 renal
# SF-268 CNS = system: SF-268 CNS
# SF-295 CNS = system: SF-295 CNS
# SF-539 CNS = system: SF-539 CNS
# SK-MEL-2 melanoma = system: SK-MEL-2 melanoma
# SK-MEL-28 melanoma = system: SK-MEL-28 melanoma
# SK-MEL-5 melanoma = system: SK-MEL-5 melanoma
# SK-OV-3 ovarian = system: SK-OV-3 ovarian
# SN12C renal = system: SN12C renal
# SNB-19 CNS = system: SNB-19 CNS
# SNB-75 CNS = system: SNB-75 CNS
# SR leukemia = system: SR leukemia
# SW-620 colon = system: SW-620 colon
# T-47D breast = system: T-47D breast
# TK-10 renal = system: TK-10 renal
# U251 CNS = system: U251 CNS
# UACC-257 melanoma = system: UACC-257 melanoma
# UACC-62 melanoma = system: UACC-62 melanoma
# UO-31 renal = system: UO-31 renal
smiles,measurement,setting,value
CC1=C(COCCOC(=O)c2ccc(S(=O)(=O)F)cc2)C2=C(C)C3(CC3)[C@@](C)(O)C(=O)C2=C1,GI50,786-0 renal,19 µM
same,TGI,786-0 renal,42.3 µM
same,GI50,A498 renal,18.6 µM
same,TGI,A498 renal,43.7 µM
same,GI50,A549 NSCLC,25.9 µM
same,TGI,A549 NSCLC,80.8 µM
same,GI50,ACHN renal,21.7 µM
same,TGI,ACHN renal,49.9 µM
same,GI50,BT-549 breast,14.9 µM
same,TGI,BT-549 breast,32.2 µM
same,GI50,CAKI-1 renal,16 µM
same,TGI,CAKI-1 renal,32.5 µM
same,GI50,CCRF-CEM leukemia,21.4 µM
same,TGI,CCRF-CEM leukemia,52.3 µM
same,GI50,COLO 205 colon,19.6 µM
same,TGI,COLO 205 colon,37.2 µM
same,GI50,DU-145 prostate,24.1 µM
same,TGI,DU-145 prostate,57.2 µM
same,GI50,EKVX NSCLC,17.5 µM
same,TGI,EKVX NSCLC,33.8 µM
same,GI50,HCC-2998 colon,18.5 µM
same,TGI,HCC-2998 colon,33.6 µM
same,GI50,HCT-116 colon,16.7 µM
same,TGI,HCT-116 colon,32.4 µM
same,GI50,HCT-15 colon,20.8 µM
same,TGI,HCT-15 colon,43.1 µM
same,GI50,HL-60(TB) leukemia,24.3 µM
same,TGI,HL-60(TB) leukemia,55.1 µM
same,GI50,HOP-62 NSCLC,21.6 µM
same,TGI,HOP-62 NSCLC,58.2 µM
same,GI50,HOP-92 NSCLC,16.6 µM
same,TGI,HOP-92 NSCLC,42.2 µM
same,GI50,HS 578T breast,25.4 µM
same,TGI,HS 578T breast,99.6 µM
same,GI50,HT29 colon,18.4 µM
same,TGI,HT29 colon,35.9 µM
same,GI50,IGROV1 ovarian,17 µM
same,TGI,IGROV1 ovarian,32.4 µM
same,GI50,K-562 leukemia,25.8 µM
same,TGI,K-562 leukemia,58.5 µM
same,GI50,KM12 colon,23.6 µM
same,TGI,KM12 colon,53.8 µM
same,GI50,LOX IMVI melanoma,17.8 µM
same,TGI,LOX IMVI melanoma,34.6 µM
same,GI50,M14 melanoma,18.9 µM
same,TGI,M14 melanoma,36.9 µM
same,GI50,MALME-3M melanoma,16 µM
same,TGI,MALME-3M melanoma,30.8 µM
same,GI50,MCF7 breast,27 µM
same,TGI,MCF7 breast,91.2 µM
same,GI50,MDA-MB-231 breast,17.7 µM
same,TGI,MDA-MB-231 breast,34.2 µM
same,GI50,MDA-MB-435,22.2 µM
same,TGI,MDA-MB-435,52.2 µM
same,GI50,MDA-MB-468 breast,18.7 µM
same,TGI,MDA-MB-468 breast,40.1 µM
same,GI50,MOLT-4 leukemia,26.3 µM
same,TGI,MOLT-4 leukemia,72.3 µM
same,GI50,NCI-H226 lung,27.9 µM
same,TGI,NCI-H226 lung,85.7 µM
same,GI50,NCI-H23 lung,19.4 µM
same,TGI,NCI-H23 lung,37.5 µM
same,GI50,NCI-H460 lung,21.6 µM
same,TGI,NCI-H460 lung,45.8 µM
same,GI50,NCI-H522 lung,16 µM
same,TGI,NCI-H522 lung,30.9 µM
same,GI50,OVCAR-3 ovarian,18.4 µM
same,TGI,OVCAR-3 ovarian,34.7 µM
same,GI50,OVCAR-4 ovarian,20.1 µM
same,TGI,OVCAR-4 ovarian,48.4 µM
same,GI50,OVCAR-5 ovarian,18.1 µM
same,TGI,OVCAR-5 ovarian,36.6 µM
same,GI50,OVCAR-8 ovarian,18.9 µM
same,TGI,OVCAR-8 ovarian,40.1 µM
same,GI50,PC-3 prostate,19.8 µM
same,TGI,PC-3 prostate,51.3 µM
same,GI50,RPMI-8226 leukemia,26 µM
same,TGI,RPMI-8226 leukemia,69.4 µM
same,GI50,RXF 393 renal,17.5 µM
same,TGI,RXF 393 renal,34.8 µM
same,GI50,SF-268 CNS,26 µM
same,TGI,SF-268 CNS,77.6 µM
same,GI50,SF-295 CNS,22.1 µM
same,TGI,SF-295 CNS,51.6 µM
same,GI50,SF-539 CNS,17.7 µM
same,TGI,SF-539 CNS,33.9 µM
same,GI50,SK-MEL-2 melanoma,17.9 µM
same,TGI,SK-MEL-2 melanoma,35.3 µM
same,GI50,SK-MEL-28 melanoma,16.2 µM
same,TGI,SK-MEL-28 melanoma,30.1 µM
same,GI50,SK-MEL-5 melanoma,20 µM
same,TGI,SK-MEL-5 melanoma,39.5 µM
same,GI50,SK-OV-3 ovarian,18.6 µM
same,TGI,SK-OV-3 ovarian,39.5 µM
same,GI50,SN12C renal,16.6 µM
same,TGI,SN12C renal,30.4 µM
same,GI50,SNB-19 CNS,17 µM
same,TGI,SNB-19 CNS,32.5 µM
same,GI50,SNB-75 CNS,16.3 µM
same,TGI,SNB-75 CNS,49.7 µM
same,GI50,SR leukemia,22.5 µM
same,TGI,SR leukemia,56.2 µM
same,GI50,SW-620 colon,17.5 µM
same,TGI,SW-620 colon,33.9 µM
same,GI50,T-47D breast,17.7 µM
same,TGI,T-47D breast,40 µM
same,GI50,TK-10 renal,19.6 µM
same,TGI,TK-10 renal,45.3 µM
same,GI50,U251 CNS,18.1 µM
same,TGI,U251 CNS,37.3 µM
same,GI50,UACC-257 melanoma,17.7 µM
same,TGI,UACC-257 melanoma,38.3 µM
same,GI50,UACC-62 melanoma,16.2 µM
same,TGI,UACC-62 melanoma,30.2 µM
same,GI50,UO-31 renal,17 µM
same,TGI,UO-31 renal,44.8 µM
